According to ChEMBL document CHEMBL4507268 (2021):

Key:
Settings in all cases: Compound concentration 1.0 uM
[1] = target: Tyrosine-protein kinase Fgr (Homo sapiens) (UniProt P09769)
[2] = target: MAP/microtubule affinity-regulating kinase 3 (Homo sapiens) (UniProt P27448)
[3] = target: Serine/threonine-protein kinase NIM1 (Homo sapiens) (UniProt Q8IY84)
[4] = target: Eukaryotic translation initiation factor 2-alpha kinase 3 (Homo sapiens) (UniProt Q9NZJ5)
[5] = target: T1, Phosphorylase b kinase regulatory subunit alpha, liver isoform (Homo sapiens) (UniProt P46019)
T1 sequence (whole entry): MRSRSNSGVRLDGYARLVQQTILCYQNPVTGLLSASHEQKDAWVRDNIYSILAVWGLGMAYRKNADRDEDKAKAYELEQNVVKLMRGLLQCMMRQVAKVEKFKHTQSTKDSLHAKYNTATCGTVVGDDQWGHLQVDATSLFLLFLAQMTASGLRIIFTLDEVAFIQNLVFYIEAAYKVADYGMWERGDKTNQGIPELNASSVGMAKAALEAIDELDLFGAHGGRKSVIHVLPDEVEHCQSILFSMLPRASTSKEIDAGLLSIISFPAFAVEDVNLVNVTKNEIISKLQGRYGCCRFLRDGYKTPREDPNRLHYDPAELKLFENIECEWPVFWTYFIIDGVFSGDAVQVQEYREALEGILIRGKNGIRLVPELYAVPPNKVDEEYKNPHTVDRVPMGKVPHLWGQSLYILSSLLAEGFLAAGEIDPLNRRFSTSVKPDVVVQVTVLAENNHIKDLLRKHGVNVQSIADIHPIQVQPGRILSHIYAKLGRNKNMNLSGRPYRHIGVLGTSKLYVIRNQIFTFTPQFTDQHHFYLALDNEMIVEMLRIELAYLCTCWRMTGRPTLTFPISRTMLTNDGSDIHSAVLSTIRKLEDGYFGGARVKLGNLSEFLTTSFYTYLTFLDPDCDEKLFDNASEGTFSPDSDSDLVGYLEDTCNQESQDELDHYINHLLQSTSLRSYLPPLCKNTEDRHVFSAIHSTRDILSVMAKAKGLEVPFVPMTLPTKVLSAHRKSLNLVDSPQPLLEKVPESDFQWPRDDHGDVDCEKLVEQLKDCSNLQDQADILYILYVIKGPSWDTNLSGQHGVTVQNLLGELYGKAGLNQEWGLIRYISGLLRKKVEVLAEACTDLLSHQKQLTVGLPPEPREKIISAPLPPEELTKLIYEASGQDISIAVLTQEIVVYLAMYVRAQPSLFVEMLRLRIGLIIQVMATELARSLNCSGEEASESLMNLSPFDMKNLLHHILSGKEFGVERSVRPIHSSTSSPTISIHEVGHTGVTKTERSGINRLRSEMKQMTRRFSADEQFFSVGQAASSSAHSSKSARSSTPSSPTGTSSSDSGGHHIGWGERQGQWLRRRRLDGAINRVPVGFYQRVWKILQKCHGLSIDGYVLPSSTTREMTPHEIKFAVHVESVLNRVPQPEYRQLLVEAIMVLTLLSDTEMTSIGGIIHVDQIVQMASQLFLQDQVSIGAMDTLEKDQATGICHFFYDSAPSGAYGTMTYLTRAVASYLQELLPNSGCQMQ

[6] = target: Serine/threonine-protein kinase pim-2 (Homo sapiens) (UniProt Q9P1W9)
[7] = target: T2, Serine/threonine-protein kinase D1 (Homo sapiens) (UniProt Q15139)
T2 sequence (whole entry): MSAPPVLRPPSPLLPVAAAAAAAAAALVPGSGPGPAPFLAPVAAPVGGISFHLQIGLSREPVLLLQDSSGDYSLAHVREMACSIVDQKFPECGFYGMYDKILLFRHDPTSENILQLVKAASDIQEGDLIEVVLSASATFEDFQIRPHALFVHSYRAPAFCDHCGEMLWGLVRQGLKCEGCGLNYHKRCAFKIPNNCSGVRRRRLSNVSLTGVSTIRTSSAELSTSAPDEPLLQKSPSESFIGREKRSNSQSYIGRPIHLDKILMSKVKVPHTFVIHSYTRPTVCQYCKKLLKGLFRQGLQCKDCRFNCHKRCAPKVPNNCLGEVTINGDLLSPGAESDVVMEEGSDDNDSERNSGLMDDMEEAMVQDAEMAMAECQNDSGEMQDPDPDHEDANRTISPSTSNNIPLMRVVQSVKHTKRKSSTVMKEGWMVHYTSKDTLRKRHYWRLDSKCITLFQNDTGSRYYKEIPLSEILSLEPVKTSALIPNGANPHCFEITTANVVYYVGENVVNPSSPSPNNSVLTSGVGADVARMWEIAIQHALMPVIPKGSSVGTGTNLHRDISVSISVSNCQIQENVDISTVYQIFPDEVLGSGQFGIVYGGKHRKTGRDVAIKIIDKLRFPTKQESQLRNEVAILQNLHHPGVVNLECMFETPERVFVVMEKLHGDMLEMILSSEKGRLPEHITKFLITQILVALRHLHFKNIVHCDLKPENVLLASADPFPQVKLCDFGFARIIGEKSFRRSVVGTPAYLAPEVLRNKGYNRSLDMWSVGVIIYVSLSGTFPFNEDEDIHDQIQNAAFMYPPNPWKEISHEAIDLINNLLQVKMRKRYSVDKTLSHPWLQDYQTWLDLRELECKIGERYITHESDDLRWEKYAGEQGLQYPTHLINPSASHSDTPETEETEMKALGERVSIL

[8] = target: T3, TGF-beta receptor type-1 (Homo sapiens) (UniProt P36897)
T3 sequence (whole entry): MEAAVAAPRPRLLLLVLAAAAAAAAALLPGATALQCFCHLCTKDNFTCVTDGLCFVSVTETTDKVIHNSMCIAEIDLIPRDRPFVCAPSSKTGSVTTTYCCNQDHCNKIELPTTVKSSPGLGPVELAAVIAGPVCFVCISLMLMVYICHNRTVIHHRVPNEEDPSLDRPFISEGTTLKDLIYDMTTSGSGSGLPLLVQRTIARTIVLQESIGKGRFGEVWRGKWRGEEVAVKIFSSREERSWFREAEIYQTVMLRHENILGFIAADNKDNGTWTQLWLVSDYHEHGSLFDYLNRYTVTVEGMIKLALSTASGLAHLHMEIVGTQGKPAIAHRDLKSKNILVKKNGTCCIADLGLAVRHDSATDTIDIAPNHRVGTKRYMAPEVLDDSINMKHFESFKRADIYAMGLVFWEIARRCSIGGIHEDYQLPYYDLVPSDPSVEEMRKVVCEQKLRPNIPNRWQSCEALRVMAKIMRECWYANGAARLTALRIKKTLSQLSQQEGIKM

Measured: % residual kinase activity

Eukaryotic translation initiation factor 2-alpha kinase 3 (Homo sapiens), sequence (Q9NZJ5 whole entry, canonical isoform): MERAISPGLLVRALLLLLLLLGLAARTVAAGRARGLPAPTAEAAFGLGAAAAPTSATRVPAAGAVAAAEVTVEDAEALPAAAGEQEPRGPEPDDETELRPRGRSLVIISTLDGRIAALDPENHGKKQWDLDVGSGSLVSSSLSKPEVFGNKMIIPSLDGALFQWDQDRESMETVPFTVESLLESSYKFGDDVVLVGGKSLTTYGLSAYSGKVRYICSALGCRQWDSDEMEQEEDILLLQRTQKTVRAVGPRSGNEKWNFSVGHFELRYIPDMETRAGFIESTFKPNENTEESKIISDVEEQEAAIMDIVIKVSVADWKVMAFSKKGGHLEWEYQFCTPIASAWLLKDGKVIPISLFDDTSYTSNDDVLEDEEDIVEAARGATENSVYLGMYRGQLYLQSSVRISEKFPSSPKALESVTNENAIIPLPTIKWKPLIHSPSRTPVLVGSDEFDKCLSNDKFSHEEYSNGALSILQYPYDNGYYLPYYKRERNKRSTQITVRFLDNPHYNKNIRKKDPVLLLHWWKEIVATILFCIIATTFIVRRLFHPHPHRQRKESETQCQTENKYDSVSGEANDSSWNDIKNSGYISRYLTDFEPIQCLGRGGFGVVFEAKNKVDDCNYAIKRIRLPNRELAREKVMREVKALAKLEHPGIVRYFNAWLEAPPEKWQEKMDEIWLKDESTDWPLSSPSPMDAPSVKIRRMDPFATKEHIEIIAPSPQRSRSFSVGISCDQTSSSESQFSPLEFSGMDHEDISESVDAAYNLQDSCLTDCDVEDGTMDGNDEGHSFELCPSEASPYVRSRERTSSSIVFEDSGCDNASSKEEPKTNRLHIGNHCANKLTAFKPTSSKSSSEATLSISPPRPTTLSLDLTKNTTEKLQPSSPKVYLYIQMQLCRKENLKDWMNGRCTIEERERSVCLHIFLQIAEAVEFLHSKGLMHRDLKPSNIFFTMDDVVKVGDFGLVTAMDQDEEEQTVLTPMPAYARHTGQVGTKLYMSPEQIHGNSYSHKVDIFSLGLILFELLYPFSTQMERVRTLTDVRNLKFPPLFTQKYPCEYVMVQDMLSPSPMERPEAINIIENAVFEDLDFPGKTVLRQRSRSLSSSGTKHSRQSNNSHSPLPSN
Tyrosine-protein kinase Fgr (Homo sapiens), sequence (P09769 2-529 limits assumed): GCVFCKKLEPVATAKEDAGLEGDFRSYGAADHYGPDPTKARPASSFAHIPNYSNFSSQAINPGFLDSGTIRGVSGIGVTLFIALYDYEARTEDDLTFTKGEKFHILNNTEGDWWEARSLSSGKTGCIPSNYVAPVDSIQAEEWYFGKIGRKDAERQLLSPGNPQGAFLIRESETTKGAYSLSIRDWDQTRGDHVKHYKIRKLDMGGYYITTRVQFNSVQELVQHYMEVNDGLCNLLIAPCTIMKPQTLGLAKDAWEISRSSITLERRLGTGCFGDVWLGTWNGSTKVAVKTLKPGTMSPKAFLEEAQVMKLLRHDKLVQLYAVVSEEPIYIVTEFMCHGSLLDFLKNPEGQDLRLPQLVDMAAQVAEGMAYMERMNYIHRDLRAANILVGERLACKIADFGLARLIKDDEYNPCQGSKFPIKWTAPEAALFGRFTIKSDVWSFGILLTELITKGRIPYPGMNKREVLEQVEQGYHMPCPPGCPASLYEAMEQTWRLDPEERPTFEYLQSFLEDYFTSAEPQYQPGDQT
Serine/threonine-protein kinase NIM1 (Homo sapiens), sequence (Q8IY84 whole entry): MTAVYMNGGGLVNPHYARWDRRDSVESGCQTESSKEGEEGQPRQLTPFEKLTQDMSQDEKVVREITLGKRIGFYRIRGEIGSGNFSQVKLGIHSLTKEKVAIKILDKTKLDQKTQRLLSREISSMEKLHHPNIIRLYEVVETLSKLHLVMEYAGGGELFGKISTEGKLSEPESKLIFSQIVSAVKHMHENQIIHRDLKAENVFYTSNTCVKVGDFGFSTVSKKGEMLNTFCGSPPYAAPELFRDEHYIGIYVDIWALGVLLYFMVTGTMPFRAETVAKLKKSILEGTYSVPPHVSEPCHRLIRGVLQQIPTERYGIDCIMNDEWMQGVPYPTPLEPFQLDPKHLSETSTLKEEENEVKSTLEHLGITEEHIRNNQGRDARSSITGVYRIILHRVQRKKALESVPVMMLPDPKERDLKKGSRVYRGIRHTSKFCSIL
Serine/threonine-protein kinase pim-2 (Homo sapiens), sequence (Q9P1W9 whole entry, looked up): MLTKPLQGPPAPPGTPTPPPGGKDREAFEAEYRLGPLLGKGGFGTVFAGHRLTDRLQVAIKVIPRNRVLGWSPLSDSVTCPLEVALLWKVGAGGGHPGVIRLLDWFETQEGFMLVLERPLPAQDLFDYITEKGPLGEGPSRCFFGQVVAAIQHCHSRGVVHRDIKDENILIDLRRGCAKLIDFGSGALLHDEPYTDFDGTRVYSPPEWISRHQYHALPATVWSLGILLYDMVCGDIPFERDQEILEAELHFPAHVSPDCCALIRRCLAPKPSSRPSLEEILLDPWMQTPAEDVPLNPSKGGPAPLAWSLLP
MAP/microtubule affinity-regulating kinase 3 (Homo sapiens), sequence (P27448 whole entry, looked up): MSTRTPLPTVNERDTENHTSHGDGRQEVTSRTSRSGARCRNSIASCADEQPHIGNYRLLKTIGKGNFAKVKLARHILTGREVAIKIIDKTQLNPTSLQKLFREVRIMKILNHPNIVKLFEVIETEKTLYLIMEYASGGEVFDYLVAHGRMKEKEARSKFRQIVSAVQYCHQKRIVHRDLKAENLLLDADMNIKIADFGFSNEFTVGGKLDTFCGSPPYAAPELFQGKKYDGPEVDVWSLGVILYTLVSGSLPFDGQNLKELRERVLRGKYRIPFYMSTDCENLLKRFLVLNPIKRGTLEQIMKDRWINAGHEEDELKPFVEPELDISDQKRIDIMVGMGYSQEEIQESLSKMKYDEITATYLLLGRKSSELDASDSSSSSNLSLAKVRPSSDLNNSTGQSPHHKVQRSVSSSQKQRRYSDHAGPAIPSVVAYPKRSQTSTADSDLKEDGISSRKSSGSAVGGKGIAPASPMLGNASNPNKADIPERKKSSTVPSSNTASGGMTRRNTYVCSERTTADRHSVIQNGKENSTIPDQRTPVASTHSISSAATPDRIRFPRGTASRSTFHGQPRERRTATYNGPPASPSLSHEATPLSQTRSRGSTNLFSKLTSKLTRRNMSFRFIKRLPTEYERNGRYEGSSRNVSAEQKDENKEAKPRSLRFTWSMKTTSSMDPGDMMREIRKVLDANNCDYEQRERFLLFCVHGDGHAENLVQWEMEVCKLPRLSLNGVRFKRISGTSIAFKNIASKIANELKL

CN1CCN(c2cnc3c(C4CCN(C(=O)c5ccc(OC(F)(F)F)cc5N)CC4)ncnc3c2)CC1 [BAY-885]
inactive: [1] 98% | [2] 100% | [3] 108% | [4] 100% | [5] 112% | [6] 110% | [7] 127% | [8] 81%
